Source: patent US20200263231A1, “Fluorogenic dyes for high sensitivity DNA detection” (LIFE TECHNOLOGIES CORPORATION, priority 2016, published 2020)

Key:
calf thymus DNA = test: Fluorescence emission and enhancement of compounds bound to calf thymus DNA; type: binding; conditions: 0.8 μM compound with 500 ng/ml calf thymus DNA in TE buffer; for Emission Max: excited at 488 nm; for Fluorescence Enhancement: emission area 500-715 nm compared to compound 1, defined as 1000-fold
Protocol: Compounds 1-65 were prepared and their fluorescence absorption and emission characteristics were measured. Intrinsic fluorescence of the compounds only (without DNA) was negligible. Emission spectra for the compounds bound to dsDNA were obtained by incubating 0.8 μM compound with 500 ng/ml calf thymus DNA in TE buffer (10 mM Tris-HCl, pH 7.5, 1 mM EDTA) in a final volume of 3 ml. Measurements were made using PerkinElmer LS 55 (F-11) Fluorescence spectrometer. Samples were excited at 488 nm and fluorescence emission was measured with emission slit widths of 2.5 nm. Absorption maxima were determined according to standard techniques.
Fluorescence enhancement measurements of the compounds were obtained by incubating 0.8 μM compound with 500 ng/ml calf thymus DNA with compounds at a final concentration of 0.8 μM in TE buffer. Compound 1 was used as an internal standard to control for variability (e.g., in excitation light intensity). The area-under-curve of fluorescence emission spectra from 500 nm to 715 nm was calculated, and compared to that of compound 1, which was defined as having 1000-fold fluorescence enhancement relative to fluorescence of the compound alone.

[1] = UV/VIS absorption spectra; type: physicochemical; conditions: 10 μM compound in 50 mM potassium phosphate buffer (pH 7.0)
Protocol: The UV/VIS absorption spectra were obtained with 10 μM compound solution in 50 mM potassium phosphate buffer (pH 7.0) in a final volume of 3 mL. Measurements were carried out using a Lambda 245 spectrophotometer from Perkin Elmer.

dsDNA = test: Microplate fluorescence when bound to dsDNA; type: binding; conditions: 500 ng/mL dsDNA
Protocol: Compounds were tested in triplicate for fluorescence enhancement when bound to dsDNA. 190 μL of 1 μM compound in 1× Tris-EDTA, pH 7.5, 0.01% CHAPS was added to 10 μL of 4 different concentrations of dsDNA (0, 25 ng/mL, 200 ng/mL, and 500 ng/mL) in wells of 96 well Costar black, clear bottom microplates. Plates were read on a SpectraFluor multifunction microplate reader (Tecan) at 491 nm excitation and 520 nm emission.
Compounds were tested for fluorescence enhancement when bound to dsDNA as described in Example 3. Fluorescence data with dsDNA are shown in FIG. 5 for the different tested compounds.

ssDNA = test: Microplate fluorescence when bound to ssDNA; type: binding; conditions: for Ratio to R1, fluorescent emission with ssDNA / fluorescent emission with ssDNA: 500 ng/mL ssDNA; for ssDNA emission: text says 10 ng/μL
Protocol: The compounds from FIG. 1 were also characterized with respect to their fluorescence enhancement when bound to ssDNA. The compounds from FIG. 1, R1 and R2 were tested in triplicate. 190 μL of 1 μM compound in 1× Tris-EDTA pH7.5, 0.01% CHAPS was added to 10 μL of 4 different concentrations of ssDNA in wells of 96 well Costar black, clear bottom microplates. Plates were read on a SpectraFluor multifunction microplate reader (Tecan) at 491 nm excitation and 520 nm emission. Fluorescence data with ssDNA are shown in FIG. 3 for the different tested compounds.
Next, the compounds were compared for their fluorescence enhancement when bound to ssDNA as described in Example 1. Fluorescence data with ssDNA are shown in FIG. 6 for the different tested compounds.

dsDNA versus ssDNA = test: In vitro selectivity dsDNA versus ssDNA; type: binding
Protocol: Six compounds (2, 34, 35, 41, 42, and 48) were characterized in in vitro selectivity experiments for double-stranded DNA (dsDNA) versus single-stranded DNA (ssDNA). These compounds were compared against comparative compounds R^1 and R^2.
For each individual compound, the dsDNA and ssDNA fluorescence emission at 10 ng/μL was compared to evaluate in vitro selectivity for dsDNA/ssDNA, as shown in FIG. 4.
Further in vitro selectivity experiments for double-stranded DNA (dsDNA) versus single-stranded DNA (ssDNA) were performed using the methods outlined in Example 3 to compare compounds 2, 34, 41, 42, and 48 to comparative compounds R1 and R2.
For each individual compound, the dsDNA and ssDNA fluorescence emission at 10 ng/μL was calculated to estimate in vitro selectivity, as shown in FIG. 7.

[2] = Example 3, Table 2, 1 μM compound, 491 nm excitation, 520 nm emission
[3] = Example 3, Table 3, 1 μM compound, 491 nm excitation, 520 nm emission
[4] = Example 3, Table 4, FIG. 4 says 500 ng/mL
[5] = Example 4, Table 7, FIG. 7 says 500 ng/mL

Row | Emission Max (calf thymus DNA) [nm] | Absorbance Max [1] [nm] | Structure (SMILES) | Fluorescence Enhancement (calf thymus DNA) [fold] | Ratio to R1, fluorescent emission with dsDNA (dsDNA; Example 3, Table 2) | fluorescent emission with dsDNA (dsDNA; [2]) | Ratio to R1, fluorescent emission with dsDNA (dsDNA; Example 4, Table 5) | fluorescent emission with dsDNA (dsDNA; Example 4, Table 5) | Ratio to R1, fluorescent emission with ssDNA (ssDNA; Example 3, Table 3) | fluorescent emission with ssDNA (ssDNA; [3]) | ssDNA emission (ssDNA; [4]) | fluorescent emission with ssDNA (ssDNA; Example 4, Table 6) | ssDNA emission (ssDNA; [5]) | ratio of dsDNA emission versus ssDNA emission (dsDNA versus ssDNA; Example 3, Table 4) | ratio of dsDNA emission versus ssDNA emission (dsDNA versus ssDNA; Example 4, Table 7)
1 | 517 | 488 | CCCCN(CCCN(C)C)C1=CC(=Cc2sc3ccccc3[n+]2C)c2ccc(OC)cc2N1c1ccccc1.[I-] [Compound 34] | 1071 | 1.92 | 10452 | 2.1 | 12434 | 2.4 | 2578 | 2578 | 2603 | 2603 | 4.1 | 4.8
2 | – | – | COc1ccc2c(c1)N(c1ccccc1)C(N(CCC[N+](C)(C)C)CCC[N+](C)(C)C)=CC2=Cc1sc2ccccc2[n+]1C.I [Compound R2, reference compound] | – | 1.59 | 8627 | 1.7 | 9941 | 1.5 | 1669 | 1669 | 1512 | 1512 | 5.2 | 6.6
3 | 517 | 493 | CCCN(CCCN(C)C)C1=CC(=Cc2sc3ccccc3[n+]2C)c2ccc(OC)cc2N1c1ccccc1.[I-] [Compound 41] | 1020 | 1.83 | 9936 | 1.9 | 11424 | 2.7 | 2878 | 2878 | 2814 | 2814 | 3.5 | 4.1
4 | 523 | 501 | CCCN(CCC[N+](C)(C)C)C1=CC(=Cc2sc3ccccc3[n+]2C)c2ccccc2N1c1ccccc1.[Cl-].[I-] [Compound 2] | 964 | 1.74 | 9494 | 1.8 | 10339 | 1.6 | 1773 | 1773 | 1767 | 1767 | 5.4 | 5.9
5 | – | – | CN(C)CCCN(CCCN(C)C)C1=CC(=Cc2sc3ccccc3[n+]2C)c2ccccc2N1c1ccccc1.[I-] [Compound R1, reference compound] | – | 1.00 | 5441 | 1.0 | 5887 | 1.0 | 1081 | 1081 | 1080 | 1080 | 5.0 | 5.5
6 | 519 | 494 | CCCN(CCC[N+](C)(C)C)C1=CC(=Cc2sc3ccccc3[n+]2C)c2ccc(OC)cc2N1c1ccccc1.[I-].[I-] [Compound 42] | 1070 | 2.00 | 10860 | 2.3 | 13580 | 2.8 | 3017 | 3017 | 3078 | 3078 | 3.6 | 4.4

Row | Structure (SMILES) | Emission Max (calf thymus DNA) [nm] | Absorbance Max [1] [nm] | Fluorescence Enhancement (calf thymus DNA) [fold] | Ratio to R1, fluorescent emission with dsDNA (dsDNA; Example 3, Table 2) | fluorescent emission with dsDNA (dsDNA; [2]) | Ratio to R1, fluorescent emission with dsDNA (dsDNA; Example 4, Table 5) | fluorescent emission with dsDNA (dsDNA; Example 4, Table 5) | Ratio to R1, fluorescent emission with ssDNA (ssDNA; Example 3, Table 3) | fluorescent emission with ssDNA (ssDNA; [3]) | ssDNA emission (ssDNA; [4]) | fluorescent emission with ssDNA (ssDNA; Example 4, Table 6) | ssDNA emission (ssDNA; [5]) | ratio of dsDNA emission versus ssDNA emission (dsDNA versus ssDNA; Example 3, Table 4) | ratio of dsDNA emission versus ssDNA emission (dsDNA versus ssDNA; Example 4, Table 7)
7 | CCN(CCCN(C)C)C1=CC(=Cc2sc3ccccc3[n+]2C)c2ccc(OC)cc2N1c1ccccc1.[I-] [Compound 48] | 520 | 489 | 1016 | 1.72 | 9350 | 1.9 | 11400 | 2.5 | 2739 | 2739 | 2477 | 2477 | 3.4 | 4.6
8 | CCCCN(CCC[N+](C)(C)C)C1=CC(=Cc2sc3ccccc3[n+]2C)c2ccc(OC)cc2N1c1ccccc1.[I-].[I-] [Compound 35] | 518 | 489 | 1069 | 2.05 | 11136 | – | – | 2.3 | 2515 | 2515 | – | – | 4.4 | –
